Source: patent US20230135894A1, “MK2 DEGRADERS AND USES THEREOF” (Kymera Therapeutics, Inc., priority 2021, published 2023)

Assays:
MK2 [1] = biological target: T1, MK2 (Homo sapiens, UniProt P49137); assay: MK2 degradation in human THP-1 monocytic cells (MSD, 24 h); type: cell-based; parameters: endogenous in cells; conditions: for Dmax: THP-1, THP-1 cells; for DC50: THP-1 cells, read-out: MK2 MSD THP-1 degradation 24 h GMean External Abs DC50
Summary of the method: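 Readout: residual MK2 protein in THP-1 lysates, measured by MSD electrochemiluminescence sandwich assay after 24 h compound exposure (≤10-point serial dilutions, 0.1% DMSO, 37 °C). Curves normalised between lysis-buffer and DMSO-cell signals; DC50 by 4-parameter logistic fit.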

MK2 [2] = biological target: T1, MK2; assay: MK2 degradation in human SW1353 cells (MSD, 24 h); type: cell-based; parameters: endogenous in cells; host or cells: SW-1353 (ATCC HTB-94); conditions: for Dmax: read-out: MK2 MSD SW 1353 24 h Dmax %; for DC50: read-out: MK2 MSD SW1353 degradation 24 h GMean External Abs DC50
Summary of the method: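 DC50 derived by 4-parameter logistic fit, with DMSO-treated signal as top and lysis-buffer signal as bottom. Remaining MK2 was measured by MSD electrochemiluminescent sandwich assay in RIPA lysates of human SW1353 cells exposed for 24 h at 37 °C to serially diluted compound in 0.1% DMSO.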

T1 sequence (P49137 whole entry): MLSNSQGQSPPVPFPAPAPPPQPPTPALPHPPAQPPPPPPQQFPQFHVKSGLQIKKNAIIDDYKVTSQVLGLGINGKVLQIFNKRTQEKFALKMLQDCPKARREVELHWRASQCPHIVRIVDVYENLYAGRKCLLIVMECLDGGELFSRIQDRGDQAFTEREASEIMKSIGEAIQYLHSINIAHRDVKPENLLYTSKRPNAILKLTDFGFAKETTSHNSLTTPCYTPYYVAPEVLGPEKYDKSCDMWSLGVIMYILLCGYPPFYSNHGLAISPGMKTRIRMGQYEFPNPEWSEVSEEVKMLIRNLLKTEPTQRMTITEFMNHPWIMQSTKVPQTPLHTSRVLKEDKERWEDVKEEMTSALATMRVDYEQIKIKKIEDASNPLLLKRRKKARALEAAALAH

Dmax (MK2 [1])	DC50 (MK2 [1])	Dmax (MK2 [2])	DC50 (MK2 [2])	Structure (SMILES)
< 50%	> 100 nM	< 50%	> 100 nM	Cn1c(=O)n(C2CCC(=O)NC2=O)c2ccc(N3CCC(CN4CCN(c5cc(C#N)cc(-n6cc(-c7ccc8c(c7)CCNC8=O)c(N)n6)c5)CC4)CC3)cc21 (centres unmarked) [Compound I-458]
> 75%	< 1 nM	> 75%	1 to 10 nM	C[C@@H]1CNc2c(sc3ccc4nc(-c5cnc(N6CCC(CN7CCN(c8cccc9c8n(C)c(=O)n9C8CCC(=O)NC8=O)CC7)CC6)nc5)ccc4c23)C(=O)N1 (some centres unmarked) [Compound I-270]
< 50%	> 100 nM	> 75%	10 to 100 nM	C[C@@H]1CN(C)c2c(sc3ccc4nc(-c5ccc(N6CCC(CN7CCN(c8cccc9c(N%10CCC(=O)NC%10=O)cncc89)CC7)CC6)cc5)ccc4c23)C(=O)N1 [Compound I-261]
> 75%	1 to 10 nM	> 75%	1 to 10 nM	C[C@@H]1CNc2c(sc3ccc4nc(-c5cccc(C#CCNC(=O)COCCOCCc6cccc7c6n(C)c(=O)n7C6CCC(=O)NC6=O)c5)ccc4c23)C(=O)N1 (some centres unmarked) [Compound I-50]
< 50%	> 100 nM	< 50%	> 100 nM	Cn1c(=O)n(C2CCC(=O)NC2=O)c2cccc(C3CCN(CC4CCN(c5ccc(F)c(-c6cc(-c7cc8c([nH]7)CCNC8=O)ccn6)c5)CC4)CC3)c21 (centres unmarked) [Compound I-146]
< 50%	> 100 nM	< 50%	> 100 nM	Cn1c(=O)n(C2CCC(=O)NC2=O)c2ccc(N3CCC(CN4CCN(c5cc(-c6ccccc6)cc(-c6cc(-c7cc8c([nH]7)CCNC8=O)ccn6)c5)CC4)CC3)cc21 (centres unmarked) [Compound I-224]
> 75%	< 1 nM	> 75%	< 1 nM	Cc1cc(N2CCC(CN3CCN(c4ccc5c(c4)n(C)c(=O)n5C4CCC(=O)NC4=O)CC3)CC2)ccc1-c1ccc2c(ccc3sc4c(c32)NC[C@@H](C)NC4=O)n1 (some centres unmarked) [Compound I-298]
> 75%	< 1 nM	> 75%	< 1 nM	C[C@@H]1CNc2c(sc3ccc4nc(-c5ccc(N6CCN(C[C@H]7C[C@@H](c8ccc9c(c8)n(C)c(=O)n9C8CCC(=O)NC8=O)C7)CC6)cc5)ccc4c23)C(=O)N1 (some centres unmarked) [Compound I-221]
> 75%	1 to 10 nM	> 75%	1 to 10 nM	C[C@@H]1CNc2c(sc3ccc4nc(-c5ccc(CNC(=O)COCCOCCOCCOCCc6cccc7c6n(C)c(=O)n7C6CCC(=O)NC6=O)cc5)ccc4c23)C(=O)N1 (some centres unmarked) [Compound I-92]
< 50%	> 100 nM	< 50%	> 100 nM	C[C@@H]1CNc2c(sc3ccc4nc(-c5cccc(N6CCN(C(=O)COCCOCCc7cccc8c7n(C)c(=O)n8C7CCC(=O)N(C)C7=O)CC6)c5)ccc4c23)C(=O)N1 (some centres unmarked) [Compound I-318]
50 to 75%	< 1 nM	> 75%	< 1 nM	Cc1cc(N2CCN(CC3CN(c4ccc5c(c4)n(C)c(=O)n5C4CCC(=O)NC4=O)C3)CC2)ncc1-c1ccc2c(ccc3sc4c(c32)NC[C@@H](C)NC4=O)n1 (some centres unmarked) [Compound I-250]
50 to 75%	10 to 100 nM	50 to 75%	1 to 10 nM	C[C@@H]1CNc2c(sc3ccc4nc(N5C[C@H]6CC[C@@H]5CN6CC5CCN(c6cccc7c6n(C)c(=O)n7C6CCC(=O)NC6=O)CC5)ccc4c23)C(=O)N1 (some centres unmarked) [Compound I-452]
> 75%	1 to 10 nM	> 75%	10 to 100 nM	Cc1ccc(NC(=O)c2cccc(C(F)(F)F)c2)cc1N1Cc2cnc(Nc3ccc(N4CCN(CCCCCC(=O)N[C@H](C(=O)N5C[C@H](O)C[C@H]5C(=O)N[C@@H](C)c5ccc(-c6scnc6C)cc5)C(C)(C)C)CC4)nc3)nc2N(C)C1=O [Compound I-462]
> 75%	< 1 nM	> 75%	1 to 10 nM	C[C@@H]1CN(C)c2c(sc3ccc4nc(-c5ccc(N6CCN(CCc7cccc8c7n(C)c(=O)n8C7CCC(=O)NC7=O)CC6)cc5)ccc4c23)C(=O)N1 (some centres unmarked) [Compound I-413]
